Results on two compounds are retold here after patent US20060088552A1, “Method for inhibiting cell death, cell death inhibitor, and remedy for disease caused by cell death containing the cell death inhibitor” (priority 2002, published 2006).

Assay [1] has as its system C6 glial cells. Format: cell-based, rat. Here is the method: Cell volume was assessed according to a Coulter principle using a flow cytometer (EPICS Elite ESP, Coulter Co., Miami, Fla.). Cell viability was also assessed under a flow cytometry by a propidium iodide exclusion test. The cell suspension of 10 ml was incubated at 37° C. fro 1 min after adding 2 μl of PBS containing 10 mg/ml propidium iodide. Mean cell volume was measured at a given time by introducing 350 μl of the cell suspension containing 2×10^4 cells into the flow cytometer. A baseline cell volume was obtained as mean of values measured before and after a 20-min incubation in control solution (pH 7.4). Thereafter, effects of acidosis (pH 6.2), lactacidosis (pH 6.2), or lactate (pH 7.4) were assessed with addition of (i) HCl, (ii) lactate, or (iii) lactate and Tris. After the cells were preincubated with control (pH 7.4), acidic (pH 6.2), or lactacidosis (pH 6.2 with lactate) solution (all isotonic), effects of a hypotonic challenge were also assessed by diluting the isotonic medium with a 30% volume of deionized distilled water.
Composition of control solution employed for cell volume measurements was as follows: 125 mM NaCl, 2.5 mM KCl, 2 mM CaCl2, 1.0 mM MgCl2, 10 mM glucose, 1.25 mM NaH2PO4, and 25 mM NaHCO3 (pH 7.4, in 95% air/5% CO2). […] Molar osmolality measured by a freezing-point depression osmometer (Vogel, Giessen, Germany) was, 300, 306, and 312 mosmol/kg-H2O. […]

The test system of assay [2] is C6 glial cells. The assay is described as follows: Whole-cell patch-clamp recording of VacA-induced currents. Type of assay: cell-based, rat. As to conditions: extracellular application, 100 μM, pH 7.4. Here is the method: Using wide-tipped electrodes (to 2 MΩ), observation according to whole-cell recording (patch-clamp methods) was performed at room temperature (23-25° C.) as reported previously (Kubo M., Okada Y., “Volume-regulatory Cl^− channel currents in cultured human epithelial cells”, J. Physiol. 456, 351-371, 1992). Series resistance (<5 MΩ) was compensated (to 60% to 70%) to minimize voltage errors. Time course of current change was monitored by applying (every 15 s) alternating step pulses ([…]) from a holding potential of 0 to ±40 mV. To monitor voltage dependence of a whole-cell volume-sensitive current, step pulses (2-s duration) were applied from a prepotential of −60 mV (2-s duration) to test potentials of −60 to 100 mV in 20 mV increments after attaining steady-state activation of swelling-induced current. […] Instantaneous currents were recorded 2.5 ms after application of step pulses. […] Currents were recorded using an EPC-9 amplifier (HEKA, Lambrechet, Germany). […]
Cell swelling was induced by hypotonic (270 mosmol/kg H2O) solution in which mannitol was reduced to 40 mM. […] Permeability properties of VacA-induced channels were also assessed by using the following solutions: […]
Relative anion permeability was also assessed by replacing 115 mM extracellular Cl^− with aspartate. […]
(Patch clamp records ionic current or voltage across a cell membrane.)

Consider gramicidin, for which the “lactacidosis-induced persistent cell swelling” value in assay [1] (pretreatment with gramicidin 0.5 μM) was “not prevented”.

On to `O=C(O)c1cc([N+](=O)[O-])ccc1NCCCc1ccccc1` [NPPB], for which, in assay [1] (100 μM NPPB, VacA-treated cells), the “volume regulation after lactacidosis-induced transient swelling in VacA-treated cells” value is “abolished”. In assay [2], the “effect on VacA-mediated current” value is “strongly inhibited”.
